Target: T1, SIRT1 (Homo sapiens, UniProt Q96EB6)
T1 sequence (Q96EB6 1-747): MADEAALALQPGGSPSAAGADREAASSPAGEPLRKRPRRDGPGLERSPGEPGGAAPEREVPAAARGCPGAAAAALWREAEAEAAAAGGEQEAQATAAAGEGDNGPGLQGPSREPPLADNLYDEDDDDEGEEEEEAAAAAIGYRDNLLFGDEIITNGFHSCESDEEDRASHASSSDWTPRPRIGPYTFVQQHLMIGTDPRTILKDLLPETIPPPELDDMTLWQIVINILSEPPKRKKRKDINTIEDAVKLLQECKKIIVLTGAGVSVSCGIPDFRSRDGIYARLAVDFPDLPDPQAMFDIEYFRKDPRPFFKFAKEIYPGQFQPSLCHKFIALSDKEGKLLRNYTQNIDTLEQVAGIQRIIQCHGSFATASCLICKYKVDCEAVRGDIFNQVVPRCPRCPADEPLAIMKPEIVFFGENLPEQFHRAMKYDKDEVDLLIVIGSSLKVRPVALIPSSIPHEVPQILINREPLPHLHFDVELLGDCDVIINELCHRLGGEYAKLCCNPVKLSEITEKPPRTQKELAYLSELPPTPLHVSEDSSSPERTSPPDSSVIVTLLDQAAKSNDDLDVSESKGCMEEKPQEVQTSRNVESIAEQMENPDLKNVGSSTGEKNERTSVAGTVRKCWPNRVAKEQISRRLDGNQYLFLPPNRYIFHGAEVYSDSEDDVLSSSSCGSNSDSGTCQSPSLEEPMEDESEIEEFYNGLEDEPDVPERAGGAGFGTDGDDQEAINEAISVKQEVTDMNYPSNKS
Experiment: Mass spectrometry based SIRT1 deacetylation (activation) assay
Format: biochemical
Settings: 0.5 μM peptide substrate, 120 μM βNAD+, 10 nM SIRT1, 25 min at 25° C.; for Emax: 25 min, read-out: % Fold Act. (percent maximum fold activation)
From the text: A mass spectrometry based assay was used to identify modulators of SIRT1 activity. The mass spectrometry based assay utilizes a peptide having 20 amino acid residues as follows: Ac-EE-K(biotin)-GQSTSSHSK(Ac)NleSTEG-K(5TMR)-EE-NH2 (SEQ ID NO: 1) wherein K(Ac) is an acetylated lysine residue and Nle is a norleucine. The peptide is labeled with the fluorophore 5TMR (excitation 540 nm/emission 580 nm) at the C-terminus. The sequence of the peptide substrate is based on p53 with several modifications. In addition, the methionine residue naturally present in the sequence was replaced with the norleucine because the methionine may be susceptible to oxidation during synthesis and purification.
The mass spectrometry assay is conducted as follows: 0.5 μM peptide substrate and 120 μM βNAD^+ is incubated with 10 nM SIRT1 for 25 minutes at 25° C. in a reaction buffer (50 mM Tris-acetate pH 8, 137 mM NaCl, 2.7 mM KCl, 1 mM MgCl2, 5 mM DTT, 0.05% BSA). Test compounds may be added to the reaction as described above. […] After the 25 minute incubation with SIRT1, 10 μL of 10% formic acid is added to stop the reaction. Reactions are sealed and frozen for later mass spec analysis. Determination of the mass of the substrate peptide allows for precise determination of the degree of acetylation (i.e. starting material) as compared to deacetylated peptide (product).
A control for inhibition of sirtuin activity is conducted by adding 1 μL of 500 mM nicotinamide as a negative control at the start of the reaction (e.g., permits determination of maximum sirtuin inhibition). A control for activation of sirtuin activity is conducted using 10 nM of sirtuin protein, with 1 μL of DMSO in place of compound, to determine the amount of deacetylation of the substrate at a given timepoint within the linear range of the assay. This timepoint is the same as that used for test compounds and, within the linear range, the endpoint represents a change in velocity.
For the above assay, SIRT1 protein was expressed and purified as follows. […] The protein was expressed by induction with 1 mM IPTG as an N-terminal His-tag fusion protein at 18° C. overnight and harvested at 30,000×g. Cells were lysed with lysozyme in lysis buffer (50 mM Tris-HCl, 2 mM Tris[2-carboxyethyl]phosphine (TCEP), 10 μM ZnCl2, 200 mM NaCl) and further treated with sonication for 10 min for complete lysis. The protein was purified over a Ni-NTA column (Amersham) and fractions containing pure protein were pooled, concentrated and run over a sizing column (Sephadex S200 26/60 global). The peak containing soluble protein was collected and run on an Ion-exchange column (MonoQ). Gradient elution (200 mM-500 mM NaCl) yielded pure protein. This protein was concentrated and dialyzed against dialysis buffer (20 mM Tris-HCl, 2 mM TCEP) overnight. The protein was aliquoted and frozen at −80° C. until further use.

EC1.5	Emax [%]	SMILES
C (EC1.5>10 uM)	150 to 300	CCc1ccccc1NC(=O)c1cc(NCCN(C)C)nc(-c2ccccc2)n1 [Compound 1]
C (EC1.5>10 uM)	< 150	CN(C)CCNc1cc(C(=O)Nc2ccccc2-c2ccccc2)nc(-c2ccccc2)n1 [Compound 2]
B (EC1.5>1 and ≦10 uM)	≥ 300	CN(C)CCNc1cc(C(=O)Nc2ccccc2C(N)=O)nc(-c2ccccc2)n1 [Compound 3]
B (EC1.5>1 and ≦10 uM)	150 to 300	CN(C)CCNc1cc(C(=O)Nc2ccccc2C#N)nc(-c2ccccc2)n1 [Compound 4]
A (EC1.5≦1 uM)	≥ 300	COC(=O)c1ccccc1NC(=O)c1cc(NCCN(C)C)nc(-c2ccccc2)n1 [Compound 5]
C (EC1.5>10 uM)	150 to 300	CN(C)CCNc1cc(C(=O)Nc2ccccc2)nc(-c2ccccc2)n1 [Compound 6]
B (EC1.5>1 and ≦10 uM)	≥ 300	Cc1csc(-c2ccccc2NC(=O)c2cc(NCCN(C)C)nc(-c3ccccc3)n2)n1 [Compound 7]
A (EC1.5≦1 uM)	≥ 300	CN(C)CCNc1cc(C(=O)Nc2ccccc2-c2nccs2)nc(-c2ccccc2)n1 [Compound 8]
B (EC1.5>1 and ≦10 uM)	150 to 300	CN(C)CCNc1cc(C(=O)Nc2ccccc2-c2ccncc2)nc(-c2ccccc2)n1 [Compound 10]
B (EC1.5>1 and ≦10 uM)	150 to 300	CN(C)CCNc1cc(C(=O)Nc2ccccc2-c2cccnc2)nc(-c2ccccc2)n1 [Compound 11]
B (EC1.5>1 and ≦10 uM)	150 to 300	CN(C)CCNc1cc(C(=O)Nc2ccccc2-c2csc(-c3ccccc3)n2)nc(-c2ccccc2)n1 [Compound 12]
A (EC1.5≦1 uM)	150 to 300	CN(C)CCNc1cc(C(=O)Nc2ccccc2-c2ncc(-c3ccccc3)s2)nc(-c2ccccc2)n1 [Compound 13]
B (EC1.5>1 and ≦10 uM)	150 to 300	CN(C)CCNc1cc(C(=O)Nc2ccccc2-c2nc(-c3ccccc3)cs2)nc(-c2ccccc2)n1 [Compound 14]
A (EC1.5≦1 uM)	≥ 300	CN(C)CCNc1cc(C(=O)Nc2ccccc2-c2c[nH]c(-c3ccccc3)n2)nc(-c2ccccc2)n1 [Compound 15]
B (EC1.5>1 and ≦10 uM)	≥ 300	CN(C)CCNc1cc(C(=O)Nc2ccccc2-c2ccco2)nc(-c2ccccc2)n1 [Compound 16]
A (EC1.5≦1 uM)	150 to 300	O=C(Nc1ccccc1-c1ncc(-c2ccccc2)s1)c1cc(NCCN2CCCCC2)nc(-c2ccccc2)n1 [Compound 17]
A (EC1.5≦1 uM)	150 to 300	O=C(Nc1ccccc1-c1ncc(-c2ccccc2)s1)c1cc(N2CCNCC2)nc(-c2ccccc2)n1 [Compound 18]
A (EC1.5≦1 uM)	150 to 300	O=C(Nc1ccccc1-c1ncc(-c2ccccc2)s1)c1cc(NCCN2CCCC2)nc(-c2ccccc2)n1 [Compound 19]
B (EC1.5>1 and ≦10 uM)	≥ 300	Cc1nnc(-c2ccccc2NC(=O)c2cc(NCCN(C)C)nc(-c3ccccc3)n2)o1 [Compound 20]
A (EC1.5≦1 uM)	150 to 300	Cc1nnc(-c2ccccc2NC(=O)c2cc(NCCN(C)C)nc(-c3ccccc3)n2)s1 [Compound 21]
B (EC1.5>1 and ≦10 uM)	≥ 300	Cc1cnc(-c2ccccc2NC(=O)c2cc(NCCN(C)C)nc(-c3ccccc3)n2)s1 [Compound 22]

EC1.5	Emax [%]	SMILES
B (EC1.5>1 and ≦10 uM)	≥ 300	Cc1cnc(-c2ccccc2NC(=O)c2cc(NCCN(C)C)nc(-c3ccccc3)n2)o1 [Compound 23]
B (EC1.5>1 and ≦10 uM)	150 to 300	CN(C)CCNc1cc(C(=O)Nc2ccccc2-n2cc(-c3ccccc3)cn2)nc(-c2ccccc2)n1 [Compound 24]
A (EC1.5≦1 uM)	150 to 300	CN(C)CCNc1cc(C(=O)Nc2ccccc2-c2nnc(-c3ccccc3)s2)nc(-c2ccccc2)n1 [Compound 25]
A (EC1.5≦1 uM)	≥ 300	CN(C)CCNc1cc(C(=O)Nc2ccccc2-c2nncs2)nc(-c2ccccc2)n1 [Compound 26]
A (EC1.5≦1 uM)	≥ 300	CN(C)CCN(C)c1cc(C(=O)Nc2ccccc2-c2nncs2)nc(-c2ccccc2)n1 [Compound 27]
B (EC1.5>1 and ≦10 uM)	≥ 300	CN(C)CCNc1cc(C(=O)Nc2ccccc2-c2ccccn2)nc(-c2ccccc2)n1 [Compound 28]
B (EC1.5>1 and ≦10 uM)	≥ 300	CN(C)CCNc1cc(C(=O)Nc2ccccc2-c2ncc(C(C)(C)C)s2)nc(-c2ccccc2)c1 [Compound 29]
A (EC1.5≦1 uM)	≥ 300	CN(C)CCNc1cc(C(=O)Nc2ccccc2-c2ncc(-c3ccccc3)o2)nc(-c2ccccc2)c1 [Compound 30]
B (EC1.5>1 and ≦10 uM)	≥ 300	CN(C)CCNc1cc(C(=O)Nc2ccccc2-c2ncc(C(C)(C)C)o2)nc(-c2ccccc2)c1 [Compound 31]
A (EC1.5≦1 uM)	≥ 300	CNCCN(C)c1cc(C(=O)Nc2ccccc2-c2nnc(-c3ccccc3)s2)nc(-c2ccccc2)n1 [Compound 32]
A (EC1.5≦1 uM)	≥ 300	CN(C)CCNc1cc(C(=O)Nc2ccccc2-c2nnc(-c3ccccc3)s2)nc(-c2ccccc2)c1 [Compound 33]
A (EC1.5≦1 uM)	≥ 300	CCN(CCN(C)C)c1cc(C(=O)Nc2ccccc2-c2ncc(-c3ccccc3)o2)nc(-c2ccccc2)c1 [Compound 34]
A (EC1.5≦1 uM)	150 to 300	CN(C)CCN(C)c1cc(C(=O)Nc2ccccc2-c2nnc(-c3ccccc3)s2)nc(-c2ccccc2)c1 [Compound 35]
A (EC1.5≦1 uM)	150 to 300	CCN(CCN(C)C)c1cc(C(=O)Nc2ccccc2-c2nnc(-c3ccccc3)s2)nc(-c2ccccc2)n1 [Compound 36]
B (EC1.5>1 and ≦10 uM)	150 to 300	CN(C)CCNc1cc(C(=O)Nc2ccccc2-c2ncc(C(C)(C)C)s2)nc(-c2ccccc2)n1 [Compound 37]
A (EC1.5≦1 uM)	150 to 300	CN(C)CCNc1cc(C(=O)Nc2ccccc2-c2ncc(-c3ccccc3)o2)nc(-c2ccccc2)n1 [Compound 38]
B (EC1.5>1 and ≦10 uM)	150 to 300	CN(C)CCNc1cc(C(=O)Nc2ccccc2-c2ncc(C(C)(C)C)o2)nc(-c2ccccc2)n1 [Compound 39]
A (EC1.5≦1 uM)	≥ 300	CNCCN(C)c1cc(C(=O)Nc2ccccc2-c2nncs2)nc(-c2ccccc2)n1 [Compound 40]
A (EC1.5≦1 uM)	≥ 300	CCN(CCN(C)C)c1cc(C(=O)Nc2ccccc2-c2nncs2)nc(-c2ccccc2)n1 [Compound 41]
A (EC1.5≦1 uM)	150 to 300	CCN(CCN(C)C)c1cc(C(=O)Nc2ccccc2-c2ncc(C(C)(C)C)s2)nc(-c2ccccc2)c1 [Compound 42]

— US20110039847A1, “AMIDE DERIVATIVES AS SIRTUIN MODULATORS” (Sirtris Pharmaceuticals, Inc, priority 2007, published 2011)
